# Laboratory results taken from patent US7122624B2, “Parathyroid hormone receptor ligands” (The United States of America as represented by the …, priority 1999, dated 2006).
# No end group written: not given here.
# What was measured:
# rat PTH1 receptor = target: T1, rat PTH1 receptor (Rattus norvegicus, UniProt P25961); assay: cAMP accumulation in COS-7 cells transiently expressing the rat PTH1 receptor; assay type: cell-based; conditions: 3.2 μM TIP(7–39), agonist rPTH(1–34); read-out: pKB as concentration (converted)
# T1 construct: expressed in transfected cells; host or cells: COS-7 (transient)
# T1 sequence (P25961 27-591): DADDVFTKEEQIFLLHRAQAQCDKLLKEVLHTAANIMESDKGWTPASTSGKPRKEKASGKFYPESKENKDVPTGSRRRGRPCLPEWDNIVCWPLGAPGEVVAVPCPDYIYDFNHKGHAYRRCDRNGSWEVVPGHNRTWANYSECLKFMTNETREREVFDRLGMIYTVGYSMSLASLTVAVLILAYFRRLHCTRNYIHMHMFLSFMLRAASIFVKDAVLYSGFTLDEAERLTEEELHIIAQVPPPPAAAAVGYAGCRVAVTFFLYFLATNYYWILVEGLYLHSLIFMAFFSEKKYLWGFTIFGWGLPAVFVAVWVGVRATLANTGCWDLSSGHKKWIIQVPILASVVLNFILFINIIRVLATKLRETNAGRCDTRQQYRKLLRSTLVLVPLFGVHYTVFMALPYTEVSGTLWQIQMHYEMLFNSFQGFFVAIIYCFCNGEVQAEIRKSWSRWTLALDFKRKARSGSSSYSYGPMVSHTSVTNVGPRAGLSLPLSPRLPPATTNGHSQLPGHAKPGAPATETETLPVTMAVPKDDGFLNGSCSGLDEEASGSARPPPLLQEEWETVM
# human PTH1 receptor [1] = target: T2, human PTH1 receptor (Homo sapiens, UniProt Q03431); assay: Radioligand displacement binding to HEK293 cell membranes expressing the human PTH1 receptor
# T2 sequence (Q03431 27-593): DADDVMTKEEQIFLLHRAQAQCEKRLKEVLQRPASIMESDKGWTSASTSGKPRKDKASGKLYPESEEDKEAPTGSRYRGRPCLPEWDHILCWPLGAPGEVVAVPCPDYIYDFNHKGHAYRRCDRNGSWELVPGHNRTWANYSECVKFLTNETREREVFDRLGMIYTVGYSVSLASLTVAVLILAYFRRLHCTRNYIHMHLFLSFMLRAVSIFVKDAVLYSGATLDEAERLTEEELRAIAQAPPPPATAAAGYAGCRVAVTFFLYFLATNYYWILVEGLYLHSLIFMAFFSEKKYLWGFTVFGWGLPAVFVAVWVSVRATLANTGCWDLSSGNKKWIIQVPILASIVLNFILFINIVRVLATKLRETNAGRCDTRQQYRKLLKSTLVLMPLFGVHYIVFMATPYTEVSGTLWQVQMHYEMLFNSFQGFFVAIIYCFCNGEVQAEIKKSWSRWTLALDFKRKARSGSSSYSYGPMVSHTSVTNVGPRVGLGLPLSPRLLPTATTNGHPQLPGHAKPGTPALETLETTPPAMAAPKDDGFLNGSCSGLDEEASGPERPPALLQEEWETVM
# Description: (§1) In these assays the binding of a range of concentrations of an unlabeled ligand was measured by displacement of radioligand binding. Three methods were employed. An assay employing centrifugation to separate bound and free radioligand was used to accurately measure ligand binding parameters. A higher-throughput method employing rapid filtration was used to generate comparative ligand binding data. […] In these assays a very low concentration of radioligand was used so that the IC50 closely approximates the ligand affinity.
# (§2) In the centrifugation assay cell membranes (45–50 μg), radioligand (100,000–300,000 cpm) and unlabeled ligand were incubated in a final volume of 1 ml assay buffer (20 mM HEPES, 100 mM NaCl, 1 mM EDTA, 3 mM MgSO4 pH 7.5, supplemented with 0.3% non-fat dried milk powder, 100 μM AEBSF and 1 μg/ml bacitracin) for two hours at 21° C. Membranes were collected at 18,000×g, the surface of the pellet gently washed and the radioactivity counted as described in Examples. […] Less than 20% of the total radioligand added was bound within the membrane pellet. […] (Greater than 50% of the total radioligand was bound if all the membrane in the incubation was from transfected cells).
# (§3) For inhibition of radioligand binding, y is the cpm bound at a given unlabeled ligand concentration, min is non-specific binding (measured in the presence of a high concentration of the unlabeled version of the radiolabeled ligand) and max is total binding (measured in the absence of unlabeled ligand).
# (§4) Binding was measured in the presence of 10 μM GTPγS to minimize complications arising from receptor-G-protein coupling, such as pseudo-irreversible binding of the agonist radioligand.
# (§5) A similar assay design was used for the PTH1 and PTH2 receptor, in which radiolabeled agonist binding was displaced by the unlabeled ligands in the presence of 10 μM GTPγS. Briefly, cell membranes (45 μg), radioligand (50,000 cpm) and unlabeled ligand were incubated in a final volume of 1 ml assay buffer (20 mM HEPES, 100 mM NaCl, 1 mM EDTA, 3 mM MgSO4 pH 7.5, supplemented with 0.3% non-fat dried milk powder, 100 μM (4-(2-aminoethyl))-benzenesulfonylflouride (AEBSF), 1 μg/ml bacitracin and 10 μM GTPγS) for two hours at 21° C. Membranes were collected at 18,000×g, the surface of the pellet gently washed and the radioactivity counted as described in Examples. […] To prevent greater than 20% of the total radioligand added from binding to the membranes, 15–20 μg of membranes from transfected cells were used, made up to 45 μg with membranes from non-transfected cells.
# PTH2 receptor [2] = target: T3, PTH2 receptor (Homo sapiens, UniProt P49190); assay: cAMP accumulation in HEK293 cells stably expressing the human PTH2 receptor (293PTH2); assay type: cell-based; design: expressed in transfected cells; conditions: 293PTH2 cells
# Description: (§6) COS-7 cells were grown as previously described in Clark et al. For cAMP accumulation assays COS-7 cells were transfected as previously described in Clark et al. except that transfections were performed in 10 cm tissue culture dishes using 10 μg of plasmid DNA. The cells were transferred following trypsinization to 96-well plates at a density of 50,000 cells/well the following day. Cells were used for cAMP accumulation assays three days after transfection.
# (§7) Ligand-stimulated accumulation of cAMP was measured as described in Examples, using a radioimmunoassay to quantify cAMP (Clark et al., supra).
# For cAMP accumulation data y is the amount of cAMP produced at a given peptide concentration, min is the cAMP level in the absence of ligand and max is the maximum level produced. […] Statistical comparison of multiple means was performed initially by single-factor analysis of variance followed by post-hoc analysis with the Newman-Keuls test. Statistical comparison of two means was performed using a two-tailed Student's t-test.
# human PTH1 receptor [3] = target: T2, human PTH1 receptor; assay: cAMP accumulation in COS-7 cells transiently expressing the human PTH1 receptor; conditions: for Kb: pKB as concentration
# Description: as §6, §7
# Slightly different procedures were used depending on the experimental paradigm. […] This buffer was removed and replaced with 40 μl fresh buffer. Test agents were added in a volume of 10 μl and the cells incubated for an additional 40 min at 37° C. The assay was then terminated by the addition of 50 μl 0.1 N HCl, 0.1 mM CaCl2. […] After a further 40 minutes at 37° C. the assay was terminated as described above. […] The buffer was removed and the following solutions added sequentially: 30 μl buffer containing plasma, 10 μl antagonist in buffer and 10 μl rPTH(1–34) in buffer. The cells were incubated at 37° C. for 40 minutes prior to assay termination. Human plasma was prepared by addition of EDTA to whole blood at a final concentration of 10 mM followed by centrifugation at 1,000×g for 10 minutes. The plasma supernatant was collected and stored in aliquots at −80° C. before use. cAMP was quantified using a RIA as previously described (Clark et al., supra).
# For cAMP accumulation data y is the amount of cAMP produced at a given peptide concentration, min is the cAMP level in the absence of ligand, max is the maximum level produced and K is the log EC50.
# The pA2 was subsequently converted to a pKB value by fixing n at unity in the linear regression analysis.
# human PTH1 receptor [4] = target: T2, human PTH1 receptor; assay: Intracellular calcium concentration in Fluo-4-loaded HEK293 cells expressing the human PTH1 receptor; assay type: cell-based; design: expressed in transfected cells
# Description: HEK293 cells stably expressing the PTH1 receptor were seeded in wells of a 96-well plate at 100,000 cells per well. The following day, medium was removed and the cells washed once with 0.1 ml Dulbecco's phosphate buffered saline containing 1 mM Ca^2+ and 1 mM Mg^2+ (DPBS). Cells were then loaded with 5 μM Fluo-4 acetoxymethyl ester, with 0.1% (w/v) Pluronic F-127 and 2.5 mM probenecid in DPBS for 1 hour at 37° C. Following two washes with DPBS supplemented with 0.1% BSA, cells were incubated in 0.1 ml of the same buffer for 30 min at 37° C. This buffer was then removed and 50 μl pre-warmed DPBS with BSA added. Baseline fluorescence was then measured for 80 sec at 37° C. in a Cytofluor 4,000 multiwell plate fluorimeter (PerSpective Biosystems, Framington, Mass.) (excitation wavelength […], emission wavelength […]). Test agents were then added and fluorescence monitored as before. Fluorescence was measured in duplicate wells of cells for each experimental condition. Cytosolic free calcium concentration ([Ca^2+]i) was calculated using the equation: [Ca^2+]i=KD(F−Fmin)/(Fmax−F) where KD is the ion dissociation constant (345 nM) for the indicator and F the fluorescence signal in arbitrary units. Fmax (maximum fluorescence at Ca^2+-saturation of the indicator) was determined by addition of 130 μM ionomycin and Fmin (background fluorescence) measured after addition of 20 mM EGTA.
# human PTH1 receptor [5] = target: T2, human PTH1 receptor; assay: cAMP accumulation in HEK293 cells stably expressing the human PTH1 receptor (293PTH1); assay type: cell-based; design: expressed in transfected cells; conditions: 293PTH1 cells, cAMP
# [6] = target: T4, C-terminal hemaglutinin-tagged human PTH1 receptor (Homo sapiens, UniProt Q03431); assay: cAMP accumulation in COS-7 cells expressing a C-terminal hemaglutinin-tagged human PTH1 receptor; assay type: cell-based
# T4 sequence (Q03431 27-593): T2 sequence (Q03431 27-593)
# PTH2 receptor [7] = target: T3, PTH2 receptor; assay: Radioligand displacement binding to HEK293 cell membranes expressing the human PTH2 receptor
# Description: as §1, §2, §3, §4, §5
# T3 sequence (P49190 25-550): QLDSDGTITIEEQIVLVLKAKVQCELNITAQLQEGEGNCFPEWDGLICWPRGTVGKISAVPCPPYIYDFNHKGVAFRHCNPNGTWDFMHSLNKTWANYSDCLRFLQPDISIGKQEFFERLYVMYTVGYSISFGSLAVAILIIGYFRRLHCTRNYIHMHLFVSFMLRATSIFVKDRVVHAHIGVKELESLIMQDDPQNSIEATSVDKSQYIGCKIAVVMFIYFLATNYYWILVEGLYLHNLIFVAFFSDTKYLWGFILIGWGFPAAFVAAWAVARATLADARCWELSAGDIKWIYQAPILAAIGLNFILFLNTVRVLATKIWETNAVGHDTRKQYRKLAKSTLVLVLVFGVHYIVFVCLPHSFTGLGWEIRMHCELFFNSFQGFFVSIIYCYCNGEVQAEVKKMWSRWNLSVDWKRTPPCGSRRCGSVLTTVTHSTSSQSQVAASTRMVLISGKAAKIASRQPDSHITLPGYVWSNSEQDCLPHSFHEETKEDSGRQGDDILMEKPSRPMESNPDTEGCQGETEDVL
sequence,measurement,setting,value
DAAFRERARLLAALERRHWLNSYMHKLLVLDAP [TIP(7–39)],Kb,rat PTH1 receptor,310 nM
same,"greater selectivity for the PTH1 receptor than [D-Tryp12, Tyr34]PTH(7–34) or PTHrP(7–34)","human PTH1 receptor [1]; PTH1 over PTH2 receptor, 10 μM GTPγS",5.5 fold
same,higher affinity than TIP39,"human PTH1 receptor [1]; filtration assay, no GTPγS",5.6 fold
same,higher affinity than TIP39,human PTH1 receptor [1]; presence of 10 μM GTPγS,12 fold
same,affinity for the PTH1 receptor,human PTH1 receptor [1]; summary statement,< 10 nM
same,ligand-stimulated cAMP accumulation,PTH2 receptor [2],loss of detectable ligand-stimulated cAMP accumulation
same,accumulation of cAMP in the absence of agonist,human PTH1 receptor [3]; 240 nM TIP(7–39),2.0±0.05 pmol/well
same,accumulation of cAMP in the absence of agonist,human PTH1 receptor [3]; 760 nM TIP(7–39),2.2±0.05 pmol/well
same,accumulation of cAMP in the absence of agonist,human PTH1 receptor [3]; 2.4 μM TIP(7–39),2.5±0.7 pmol/well
same,effect of human plasma on antagonist potency,human PTH1 receptor [3]; 20% human plasma,did not reduce the antagonist potency
same,Schild slope,human PTH1 receptor [3]; inhibition of rPTH(1–34)-stimulated cAMP,0.99±0.24
same,Kb,human PTH1 receptor [3]; agonist PTHrP(1–34),110 nM
same,Kb,"human PTH1 receptor [3]; agonist rPTH(1–34), Schild analysis",150 nM
same,reduction of peak [Ca2+]i increase,human PTH1 receptor [4]; TIP(7–39) 1 μM against rPTH(1–34) 3 nM,79±1%
same,change in [Ca2+]i,"human PTH1 receptor [4]; TIP(7–39) 1 μM, rPTH(1–34) 3 nM",No change in [Ca^2+]i
same,activation of the PTH1 receptor,human PTH1 receptor [5],did not detectably stimulate cAMP accumulation
same,activation of adenylyl cyclase activity,[6],did not detectably activate adenylyl cyclase activity
same,level of cAMP accumulation,"[6]; 3.2 μM TIP(7–39), without ligand 0.95±0.04",0.91±0.04 pmol/well
same,lower affinity than full-length TIP39,"PTH2 receptor [7]; filtration assay, no GTPγS (receptor-G-protein complex)",70 fold
same,lower binding potency than full-length TIP39,PTH2 receptor [7]; presence of 10 μM GTPγS,32 fold
